Measurements reported in the kinase profiling compilation of Christmann-Franck et al. (2016).

What was measured:
Experiment in all cases: radiometric filter-binding kinase assay
[1] = biological target: STK11 CAB39 STRADA (human) (UniProt Q9Y376+Q7RTN6+Q15831)
DYRK3 (human) = DYRK3 (human) (UniProt O43781); details: compound 1.0 µM
SRC (human) = SRC (human) (UniProt P12931); details: compound 10.0 µM
RPS6KA1 KD1 KD2 (human) = RPS6KA1 KD1 KD2 (human) (UniProt Q15418); details: compound 1.0 µM
SYK (human) = SYK (human) (UniProt P43405)
SIK2 (human) = SIK2 (human) (UniProt Q9H0K1); details: compound 10.0 µM
NTRK1 (human) = NTRK1 (human) (UniProt P04629); details: compound 1.0 µM
CDK2 CCNA2 (human) = CDK2 CCNA2 (human) (UniProt P20248+P24941)
GSK3B (human) = GSK3B (human) (UniProt P49841); details: compound 1.0 µM
INSRR (human) = INSRR (human) (UniProt P14616); details: compound 1.0 µM
MAPK1 (human) = MAPK1 (human) (UniProt P28482); details: compound 10.0 µM
MAP2K1 (human) = MAP2K1 (human) (UniProt Q02750); details: compound 1.0 µM
MELK (human) = MELK (human) (UniProt Q14680); details: compound 1.0 µM
IKBKE (human) = IKBKE (human) (UniProt Q14164); details: compound 10.0 µM
MYLK (human) = MYLK (human) (UniProt Q15746)
RPS6KA5 KD1 KD2 (human) = RPS6KA5 KD1 KD2 (human) (UniProt O75582); details: compound 10.0 µM
PHKG1 (human) = PHKG1 (human) (UniProt Q16816)
EPHB4 (human) = EPHB4 (human) (UniProt P54760)
IGF1R (human) = IGF1R (human) (UniProt P08069)
SRPK1 (human) = SRPK1 (human) (UniProt Q96SB4)
NEK6 (human) = NEK6 (human) (UniProt Q9HC98); details: compound 10.0 µM
ZAP70 (human) = ZAP70 (human) (UniProt P43403); details: compound 1.0 µM
EPHB3 (human) = EPHB3 (human) (UniProt P54753)
Sequence of EPHB3 (human) (P54753 whole entry, looked up): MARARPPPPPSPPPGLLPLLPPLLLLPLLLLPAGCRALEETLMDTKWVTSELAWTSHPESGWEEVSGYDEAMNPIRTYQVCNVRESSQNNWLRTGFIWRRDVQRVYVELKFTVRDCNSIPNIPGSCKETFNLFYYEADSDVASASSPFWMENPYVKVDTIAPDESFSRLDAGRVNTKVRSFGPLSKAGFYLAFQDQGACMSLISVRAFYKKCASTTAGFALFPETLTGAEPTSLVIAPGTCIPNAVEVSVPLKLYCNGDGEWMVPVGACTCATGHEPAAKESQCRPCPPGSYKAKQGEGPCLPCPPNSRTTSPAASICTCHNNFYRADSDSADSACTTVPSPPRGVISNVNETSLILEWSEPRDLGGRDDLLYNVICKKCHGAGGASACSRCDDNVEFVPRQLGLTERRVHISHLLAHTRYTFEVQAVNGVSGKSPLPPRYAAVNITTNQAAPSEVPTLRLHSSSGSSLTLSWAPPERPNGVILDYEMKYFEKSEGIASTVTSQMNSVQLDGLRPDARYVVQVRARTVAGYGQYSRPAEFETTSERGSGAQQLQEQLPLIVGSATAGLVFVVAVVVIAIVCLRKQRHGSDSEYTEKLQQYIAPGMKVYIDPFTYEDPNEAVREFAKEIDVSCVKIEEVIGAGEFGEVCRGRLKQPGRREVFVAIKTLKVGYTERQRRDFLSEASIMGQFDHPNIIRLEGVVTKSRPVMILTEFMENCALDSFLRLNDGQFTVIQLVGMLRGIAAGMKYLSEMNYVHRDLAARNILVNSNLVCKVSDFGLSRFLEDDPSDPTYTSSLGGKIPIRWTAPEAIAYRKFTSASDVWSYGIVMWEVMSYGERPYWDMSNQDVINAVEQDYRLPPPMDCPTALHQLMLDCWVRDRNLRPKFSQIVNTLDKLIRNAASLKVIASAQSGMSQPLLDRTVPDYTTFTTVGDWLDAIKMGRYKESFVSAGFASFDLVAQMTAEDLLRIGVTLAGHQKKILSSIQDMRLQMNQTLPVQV

NUAK1 (human) = NUAK1 (human) (UniProt O60285)
Sequence of NUAK1 (human) (O60285 whole entry, looked up): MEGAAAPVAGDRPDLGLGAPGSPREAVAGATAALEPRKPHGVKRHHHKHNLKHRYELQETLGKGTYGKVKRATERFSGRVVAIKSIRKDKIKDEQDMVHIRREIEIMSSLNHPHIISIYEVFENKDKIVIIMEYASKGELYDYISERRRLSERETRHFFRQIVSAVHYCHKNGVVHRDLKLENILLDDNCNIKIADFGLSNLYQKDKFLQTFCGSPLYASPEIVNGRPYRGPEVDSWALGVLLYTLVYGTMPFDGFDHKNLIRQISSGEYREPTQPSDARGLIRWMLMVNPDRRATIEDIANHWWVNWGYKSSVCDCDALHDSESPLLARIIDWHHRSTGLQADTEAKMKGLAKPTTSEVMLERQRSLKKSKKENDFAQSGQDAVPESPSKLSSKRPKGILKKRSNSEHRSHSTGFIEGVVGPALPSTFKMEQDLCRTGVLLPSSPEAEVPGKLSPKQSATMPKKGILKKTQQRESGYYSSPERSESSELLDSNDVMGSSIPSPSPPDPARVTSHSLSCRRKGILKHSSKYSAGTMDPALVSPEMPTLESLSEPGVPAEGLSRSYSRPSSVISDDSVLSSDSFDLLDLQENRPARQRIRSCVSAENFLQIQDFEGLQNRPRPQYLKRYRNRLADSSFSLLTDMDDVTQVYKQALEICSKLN

STK24 (human) = STK24 (human) (UniProt Q9Y6E0); details: compound 1.0 µM
YES1 (human) = YES1 (human) (UniProt P07947); details: compound 1.0 µM
EPHB2 (human) = EPHB2 (human) (UniProt P29323); details: compound 1.0 µM
PRKAA1 or PRKAA2 (rat) = details: compound 1.0 µM; accession and sequence are those of the human protein
PTK6 (human) = PTK6 (human) (UniProt Q13882)
STK33 (human) = STK33 (human) (UniProt Q9BYT3)
Sequence of STK33 (human) (Q9BYT3 whole entry, looked up): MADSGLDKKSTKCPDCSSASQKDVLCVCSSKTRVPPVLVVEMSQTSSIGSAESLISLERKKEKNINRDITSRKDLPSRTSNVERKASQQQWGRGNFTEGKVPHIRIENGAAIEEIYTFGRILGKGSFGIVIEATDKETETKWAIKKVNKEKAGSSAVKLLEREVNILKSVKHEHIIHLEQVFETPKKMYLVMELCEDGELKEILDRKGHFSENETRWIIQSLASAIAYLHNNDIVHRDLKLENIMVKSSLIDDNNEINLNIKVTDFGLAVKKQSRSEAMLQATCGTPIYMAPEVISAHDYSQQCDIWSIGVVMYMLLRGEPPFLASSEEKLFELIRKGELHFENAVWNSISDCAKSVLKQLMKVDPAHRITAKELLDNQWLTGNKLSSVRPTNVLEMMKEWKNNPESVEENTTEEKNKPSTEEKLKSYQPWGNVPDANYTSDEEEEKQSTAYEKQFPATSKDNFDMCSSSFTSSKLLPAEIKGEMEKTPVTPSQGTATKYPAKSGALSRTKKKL

[2] = test system: PAK2 (human), Q13177 [T402E]; details: compound 1.0 µM
TEK (human) = TEK (human) (UniProt Q02763)
Sequence of TEK (human) (Q02763 whole entry, looked up): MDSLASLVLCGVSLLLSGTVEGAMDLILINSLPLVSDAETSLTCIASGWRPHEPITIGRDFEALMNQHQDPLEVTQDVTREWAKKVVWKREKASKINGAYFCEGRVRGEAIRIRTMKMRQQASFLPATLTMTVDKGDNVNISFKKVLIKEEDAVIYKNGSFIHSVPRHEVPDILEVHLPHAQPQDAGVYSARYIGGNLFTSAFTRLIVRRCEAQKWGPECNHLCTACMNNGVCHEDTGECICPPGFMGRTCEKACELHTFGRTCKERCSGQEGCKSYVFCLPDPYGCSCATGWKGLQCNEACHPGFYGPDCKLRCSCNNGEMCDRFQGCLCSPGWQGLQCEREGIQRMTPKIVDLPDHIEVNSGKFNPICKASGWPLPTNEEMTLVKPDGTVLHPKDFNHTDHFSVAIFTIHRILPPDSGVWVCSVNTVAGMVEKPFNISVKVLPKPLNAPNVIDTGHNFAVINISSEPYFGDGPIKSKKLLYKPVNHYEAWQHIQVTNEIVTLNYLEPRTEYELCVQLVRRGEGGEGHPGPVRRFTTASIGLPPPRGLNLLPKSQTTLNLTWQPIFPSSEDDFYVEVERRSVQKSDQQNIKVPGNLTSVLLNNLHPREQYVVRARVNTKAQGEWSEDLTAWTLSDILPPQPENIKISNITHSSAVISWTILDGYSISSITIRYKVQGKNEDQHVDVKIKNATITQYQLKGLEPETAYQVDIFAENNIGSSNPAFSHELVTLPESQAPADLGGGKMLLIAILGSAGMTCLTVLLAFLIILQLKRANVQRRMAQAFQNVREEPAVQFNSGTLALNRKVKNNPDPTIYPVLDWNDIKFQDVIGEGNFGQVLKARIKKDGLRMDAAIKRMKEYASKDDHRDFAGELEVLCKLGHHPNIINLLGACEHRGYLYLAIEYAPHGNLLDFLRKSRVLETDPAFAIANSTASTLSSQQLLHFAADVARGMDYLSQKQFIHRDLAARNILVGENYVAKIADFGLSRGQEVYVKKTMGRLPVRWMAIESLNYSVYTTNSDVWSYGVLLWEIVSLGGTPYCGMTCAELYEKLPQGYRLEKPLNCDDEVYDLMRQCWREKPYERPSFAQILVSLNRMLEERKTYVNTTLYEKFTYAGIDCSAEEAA

MAP3K9 (human) = MAP3K9 (human) (UniProt P80192); details: compound 1.0 µM
MAP3K7 TAB1 (human) = MAP3K7 TAB1 (human) (UniProt Q15750+O43318)
PIM1 (human) = PIM1 (human) (UniProt P11309)
MAPK14 (human) = MAPK14 (human) (UniProt Q16539)
MAPK9 (human) = MAPK9 (human) (UniProt P45984); details: compound 1.0 µM
RIPK2 (human) = RIPK2 (human) (UniProt O43353)
Sequence of RIPK2 (human) (O43353 whole entry, looked up): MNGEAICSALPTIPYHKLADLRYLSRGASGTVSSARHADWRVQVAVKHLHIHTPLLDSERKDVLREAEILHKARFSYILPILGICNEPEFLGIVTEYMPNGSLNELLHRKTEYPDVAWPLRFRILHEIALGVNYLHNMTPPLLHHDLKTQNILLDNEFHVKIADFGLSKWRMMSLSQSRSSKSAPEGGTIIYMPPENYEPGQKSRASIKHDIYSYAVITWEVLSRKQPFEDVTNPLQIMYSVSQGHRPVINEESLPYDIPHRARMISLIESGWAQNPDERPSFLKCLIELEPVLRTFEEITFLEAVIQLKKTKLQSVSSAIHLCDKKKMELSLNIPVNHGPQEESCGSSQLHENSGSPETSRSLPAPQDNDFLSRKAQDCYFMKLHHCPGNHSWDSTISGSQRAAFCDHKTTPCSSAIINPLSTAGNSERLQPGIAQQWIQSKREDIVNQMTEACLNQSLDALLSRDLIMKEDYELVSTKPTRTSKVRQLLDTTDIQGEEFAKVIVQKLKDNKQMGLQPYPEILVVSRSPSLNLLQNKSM

TSSK1B (human) = TSSK1B (human) (UniProt Q9BXA7); details: compound 1.0 µM
CAMKK2 (human) = CAMKK2 (human) (UniProt Q96RR4); details: compound 1.0 µM
CSNK1D (human) = CSNK1D (human) (UniProt P48730); details: compound 1.0 µM
WNK1 (human) = WNK1 (human) (UniProt Q9H4A3)
MINK1 (human) = MINK1 (human) (UniProt Q8N4C8); details: compound 10.0 µM
LCK (mouse) = details: compound 1.0 µM; accession and sequence are those of the human protein
MAPKAPK5 (human) = MAPKAPK5 (human) (UniProt Q8IW41)
PKN2 (human) = PKN2 (human) (UniProt Q16513); details: compound 10.0 µM
CSK (human) = CSK (human) (UniProt P41240); details: compound 1.0 µM

Sequence of STK11 CAB39 STRADA (human) (Q15831 whole entry, looked up): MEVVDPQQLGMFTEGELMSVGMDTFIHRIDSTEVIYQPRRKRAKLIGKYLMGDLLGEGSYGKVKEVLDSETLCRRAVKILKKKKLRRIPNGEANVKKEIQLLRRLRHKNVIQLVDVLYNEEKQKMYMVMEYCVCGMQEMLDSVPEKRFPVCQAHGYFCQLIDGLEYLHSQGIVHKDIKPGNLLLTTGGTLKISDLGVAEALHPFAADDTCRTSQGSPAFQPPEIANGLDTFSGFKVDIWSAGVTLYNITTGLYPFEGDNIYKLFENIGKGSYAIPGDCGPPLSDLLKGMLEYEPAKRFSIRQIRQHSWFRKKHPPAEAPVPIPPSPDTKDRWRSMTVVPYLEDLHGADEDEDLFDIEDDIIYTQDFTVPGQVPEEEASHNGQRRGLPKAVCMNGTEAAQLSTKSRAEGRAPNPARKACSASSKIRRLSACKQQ
Sequence of STK11 CAB39 STRADA (human) (Q7RTN6 whole entry, looked up): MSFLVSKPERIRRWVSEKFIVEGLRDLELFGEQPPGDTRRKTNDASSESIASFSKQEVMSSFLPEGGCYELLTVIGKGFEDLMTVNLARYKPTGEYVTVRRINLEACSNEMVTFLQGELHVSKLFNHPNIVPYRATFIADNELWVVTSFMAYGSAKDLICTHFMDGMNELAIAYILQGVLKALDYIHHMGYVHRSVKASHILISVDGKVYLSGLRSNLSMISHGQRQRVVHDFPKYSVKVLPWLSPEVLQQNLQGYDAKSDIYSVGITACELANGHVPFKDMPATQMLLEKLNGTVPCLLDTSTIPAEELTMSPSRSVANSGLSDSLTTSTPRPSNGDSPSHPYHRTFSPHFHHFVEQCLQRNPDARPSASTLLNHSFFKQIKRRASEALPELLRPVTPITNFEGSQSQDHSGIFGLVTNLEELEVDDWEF
Sequence of STK11 CAB39 STRADA (human) (Q9Y376 whole entry, looked up): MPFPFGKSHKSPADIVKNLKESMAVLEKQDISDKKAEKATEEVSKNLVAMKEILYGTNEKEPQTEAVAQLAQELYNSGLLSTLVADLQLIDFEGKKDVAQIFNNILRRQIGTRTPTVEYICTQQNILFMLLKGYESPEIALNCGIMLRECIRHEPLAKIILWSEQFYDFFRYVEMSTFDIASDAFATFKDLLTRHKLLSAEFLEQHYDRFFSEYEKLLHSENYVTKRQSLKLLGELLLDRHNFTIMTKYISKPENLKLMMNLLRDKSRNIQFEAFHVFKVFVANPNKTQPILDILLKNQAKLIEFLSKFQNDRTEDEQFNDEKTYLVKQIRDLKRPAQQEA

residual activity ([1]; compound 1.0 µM): 97% | residual activity ([1]; compound 10.0 µM): 105% | residual activity (DYRK3 (human)): 101% | residual activity (SRC (human)): 160% | residual activity (RPS6KA1 KD1 KD2 (human)): 69% | residual activity (SYK (human); compound 1.0 µM): 115% | residual activity (SYK (human); compound 10.0 µM): 125% | residual activity (SIK2 (human)): 111% | residual activity (NTRK1 (human)): 80% | residual activity (CDK2 CCNA2 (human); compound 1.0 µM): 113% | residual activity (CDK2 CCNA2 (human); compound 10.0 µM): 117% | residual activity (GSK3B (human)): 119% | residual activity (INSRR (human)): 76% | residual activity (MAPK1 (human)): 115% | residual activity (MAP2K1 (human)): 77% | residual activity (MELK (human)): 102% | residual activity (IKBKE (human)): 102% | residual activity (MYLK (human); compound 1.0 µM): 32% | residual activity (MYLK (human); compound 10.0 µM): 23% | residual activity (RPS6KA5 KD1 KD2 (human)): 120% | residual activity (PHKG1 (human); compound 1.0 µM): 78% | residual activity (PHKG1 (human); compound 10.0 µM): 75% | residual activity (EPHB4 (human); compound 1.0 µM): 118% | residual activity (EPHB4 (human); compound 10.0 µM): 108% | residual activity (IGF1R (human); compound 1.0 µM): 123% | residual activity (IGF1R (human); compound 10.0 µM): 117% | residual activity (SRPK1 (human); compound 1.0 µM): 61% | residual activity (SRPK1 (human); compound 10.0 µM): 69% | residual activity (NEK6 (human)): 65% | residual activity (ZAP70 (human)): 103% | residual activity (EPHB3 (human); compound 1.0 µM): 121% | residual activity (EPHB3 (human); compound 10.0 µM): 113% | residual activity (NUAK1 (human); compound 1.0 µM): 31% | residual activity (NUAK1 (human); compound 10.0 µM): 58% | residual activity (STK24 (human)): 101% | residual activity (YES1 (human)): 120% | residual activity (EPHB2 (human)): 123% | residual activity (PRKAA1 or PRKAA2 (rat)): 90% | residual activity (PTK6 (human); compound 1.0 µM): 103% | residual activity (PTK6 (human); compound 10.0 µM): 101% | residual activity (STK33 (human); compound 1.0 µM): 64% | residual activity (STK33 (human); compound 10.0 µM): 66% | residual activity [2]: 116% | residual activity (TEK (human); compound 1.0 µM): 119% | residual activity (TEK (human); compound 10.0 µM): 133% | residual activity (MAP3K9 (human)): 69% | residual activity (MAP3K7 TAB1 (human); compound 1.0 µM): 108% | residual activity (MAP3K7 TAB1 (human); compound 10.0 µM): 101% | residual activity (PIM1 (human); compound 1.0 µM): 102% | residual activity (PIM1 (human); compound 10.0 µM): 109% | residual activity (MAPK14 (human); compound 1.0 µM): 101% | residual activity (MAPK14 (human); compound 10.0 µM): 102% | residual activity (MAPK9 (human)): 107% | residual activity (RIPK2 (human); compound 1.0 µM): 59% | residual activity (RIPK2 (human); compound 10.0 µM): 56% | residual activity (TSSK1B (human)): 103% | residual activity (CAMKK2 (human)): 71% | residual activity (CSNK1D (human)): 107% | residual activity (WNK1 (human); compound 1.0 µM): 104% | residual activity (WNK1 (human); compound 10.0 µM): 106% | residual activity (MINK1 (human)): 76% | residual activity (LCK (mouse)): 113% | residual activity (MAPKAPK5 (human); compound 1.0 µM): 109% | residual activity (MAPKAPK5 (human); compound 10.0 µM): 114% | residual activity (PKN2 (human)): 79% | residual activity (CSK (human)): 104%
SMILES: O=C(Nc1cccnc1)c1cc(-c2ccnc(F)c2)ccc1OCc1ccccc1
